Where a name gives a salt, the structure may show the parent alone.
Experiments:
[1] = system: eIF4e phosphorylation in Hela cell line; assay: eIF4e phosphorylation inhibition in Hela cell line; assay type: cell-based; settings: Homo sapiens, cellular
MNK2 = MNK2 (Homo sapiens, UniProt Q9HBH9); assay: MNK2 enzymatic assay; assay type: biochemical
MNK1 = MNK1 (Homo sapiens, UniProt Q9BUB5); assay: MNK1 enzymatic assay; assay type: biochemical
MNK1, sequence (Q9BUB5 whole entry): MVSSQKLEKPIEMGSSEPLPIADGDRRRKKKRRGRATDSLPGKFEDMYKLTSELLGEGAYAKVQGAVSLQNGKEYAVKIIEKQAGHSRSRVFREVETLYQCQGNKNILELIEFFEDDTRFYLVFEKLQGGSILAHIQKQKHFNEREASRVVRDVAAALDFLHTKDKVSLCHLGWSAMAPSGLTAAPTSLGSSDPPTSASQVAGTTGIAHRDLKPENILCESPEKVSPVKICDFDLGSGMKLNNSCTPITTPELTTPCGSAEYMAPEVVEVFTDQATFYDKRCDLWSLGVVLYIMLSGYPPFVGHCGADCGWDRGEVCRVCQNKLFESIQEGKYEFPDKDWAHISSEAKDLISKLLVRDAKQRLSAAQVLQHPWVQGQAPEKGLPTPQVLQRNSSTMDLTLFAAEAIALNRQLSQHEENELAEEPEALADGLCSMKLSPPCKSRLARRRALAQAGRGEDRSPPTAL

MNK2, sequence (Q9HBH9 whole entry): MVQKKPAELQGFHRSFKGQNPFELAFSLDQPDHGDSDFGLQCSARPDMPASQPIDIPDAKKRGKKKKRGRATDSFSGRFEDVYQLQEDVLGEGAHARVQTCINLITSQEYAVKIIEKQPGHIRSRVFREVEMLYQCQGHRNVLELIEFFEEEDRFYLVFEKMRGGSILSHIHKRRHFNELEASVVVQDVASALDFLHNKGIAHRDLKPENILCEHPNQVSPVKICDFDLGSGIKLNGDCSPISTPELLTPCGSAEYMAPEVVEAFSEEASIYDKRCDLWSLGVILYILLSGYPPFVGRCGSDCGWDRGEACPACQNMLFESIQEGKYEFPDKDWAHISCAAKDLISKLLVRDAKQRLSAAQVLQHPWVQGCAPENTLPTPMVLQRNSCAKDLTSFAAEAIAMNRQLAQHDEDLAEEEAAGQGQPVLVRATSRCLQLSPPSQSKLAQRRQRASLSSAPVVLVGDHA

SMILES | IC50 [1] | IC50 (MNK2) | IC50 (MNK1)
O=C(c1ccc(-c2ccc3ncc(C#Cc4cnc5[nH]ccc5c4)n3n2)cc1)N1CCOCC1 [Example 023, (4-(3-((1H-pyrrolo[2,3-b]pyridin-5-yl)ethynyl)imidazo[1,2-b]pyridazin-6-yl)phenyl) (morpholino)methanone] | < 5 µM | < 0.5 µM | < 0.5 µM
Cc1ccccc1C#Cc1cnc2ccc(-c3ccc(C(=O)N4CCN(C)CC4)cc3)nn12 [Example 001, (4-methylpiperazin-1-yl)(4-(3-(o-tolylethynyl)imidazo[1,2-b]pyridazin-6-yl)phenyl)methanone] | < 5 µM | < 0.5 µM | < 0.5 µM
O=C(c1ccc(-c2ccc3ncc(C#Cc4cccnc4)n3n2)cc1)N1CCOCC1 [Example 010, morpholino(4-(3-(pyridin-3-ylethynyl)imidazo[1,2-b]pyridazin-6-yl)phenyl)methanone] | < 5 µM | < 0.5 µM | < 0.5 µM
O=C(c1ccc(-c2ccc3ncc(C#Cc4ccnc(Nc5ccccc5-c5ccccc5)c4)n3n2)cc1)N1CCOCC1 [Example 060, (4-(3-((2-(biphenyl-2-ylamino)pyridin-4-yl)ethynyl)imidazo[1,2-b]pyridazin-6-yl)phenyl)(morpholino)methanone] | < 5 µM | < 0.5 µM | < 0.5 µM
O=C(c1ccc(-c2ccc3ncc(C#Cc4ccnc5[nH]ncc45)n3c2)cc1)N1CCOCC1 [Example 097, (4-(3-((1H-pyrazolo[3,4-b]pyridin-4-yl)ethynyl)imidazo[1,2-a]pyridin-6-yl)phenyl)(morpholino)methanone] | < 5 µM | < 0.5 µM | < 0.5 µM
Nc1cc(C#Cc2cnc3ccc(-c4ccc(C(=O)N5CCOCC5)cc4)nn23)ccn1 [Example 034, (4-(3-((2-aminopyridin-4-yl)ethynyl)imidazo[1,2-b]pyridazin-6-yl)phenyl) (morpholino)methanone] | < 5 µM | < 0.5 µM | < 0.5 µM
Cc1ccccc1C(=O)Nc1cc(C#Cc2cnc3ccc(-c4ccc(C(=O)N5CCOCC5)cc4)nn23)ccn1 [Example 063, 2-methyl-N-(4-((6-(4-(morpholine-4-carbonyl)phenyl)imidazo[1,2-b]pyridazin-3-yl)ethynyl)pyridin-2-yl)benzamide] | < 5 µM | < 0.5 µM | < 0.5 µM
Cc1cccc(Nc2cc(C#Cc3cnc4ccc(-c5ccc(C(=O)N6CCOCC6)cc5)nn34)ccn2)c1 [Example 057, morpholino(4-(3-((2-(m-tolylamino)pyridin-4-yl)ethynyl)imidazo[1,2-b]pyridazin-6-yl)phenyl)methanone] | < 5 µM | < 0.5 µM | < 0.5 µM
CC(=O)Nc1cc(C#Cc2cnc3ccc(-c4ccc(C(=O)N5CCOCC5)cc4)nn23)ccn1 [Example 037, N-(4-((6-(4-(morpholine-4-carbonyl)phenyl)imidazo[1,2-b]pyridazin-3-yl)ethynyl)pyridin-2-yl)acetamide] | < 5 µM | < 0.5 µM | < 0.5 µM
O=C(c1ccc(-c2ccc3ncc(C#Cc4ccnc5[nH]ncc45)n3n2)cc1)N1CCOCC1 [Example 016, (4-(3-((1H-pyrazolo[3,4-b]pyridin-4-yl)ethynyl)imidazo[1,2-b]pyridazin-6-yl)phenyl) (morpholino)methanone] | < 5 µM | < 0.5 µM | < 0.5 µM

Results, then the compound that gave them:

IC50 [1] | IC50 (MNK2) | IC50 (MNK1) | SMILES
< 5 µM | < 0.5 µM | < 0.5 µM | Nc1cc(C#Cc2cnc3ccc(-c4ccc(C(=O)N5CCOCC5)cc4F)nn23)ccn1 [Example 122, (4-(3-((2-aminopyridin-4-yl)ethynyl)imidazo[1,2-b]pyridazin-6-yl)-3-fluorophenyl)(morpholino)methanone formate salt]
< 5 µM | < 0.5 µM | < 0.5 µM | C(#Cc1cnc2ccc(-c3ccc(CN4CCOCC4)cc3)nn12)c1ccnc2[nH]ccc12 [Example 075, 4-(4-(3-((1H-pyrrolo[2,3-b]pyridin-4-yl)ethynyl)imidazo[1,2-b]pyridazin-6-yl)benzyl)morpholine]
< 5 µM | < 0.5 µM | < 0.5 µM | Nc1cc(C#Cc2cnn3ccc(-c4ccc(C(=O)N5CCOCC5)cc4F)nc23)ccn1 [Example 123, (4-(3-((2-aminopyridin-4-yl)ethynyl)pyrazolo[1,5-a]pyrimidin-5-yl)-3-fluorophenyl)(morpholino) methanone formic acid salt]
< 5 µM | < 0.5 µM | < 0.5 µM | O=C(c1ccc(-c2ccc3ncc(C#Cc4c[nH]c5ncccc45)n3n2)cc1)N1CCOCC1 [Example 024, (4-(3-((1H-pyrrolo[2,3-b]pyridin-3-yl)ethynyl)imidazo[1,2-b]pyridazin-6-yl)phenyl) (morpholino)methanone]
< 5 µM | < 0.5 µM | < 0.5 µM | Cc1c(N)cccc1Nc1cc(C#Cc2cnc3ccc(-c4ccc(C(=O)N5CCNCC5)cc4)cn23)ccn1 [Example 102, (4-(3-((2-(3-amino-2-methylphenylamino)pyridin-4-yl)ethynyl)imidazo[1,2-a]pyridin-6-yl)phenyl) (piperazin-1-yl)methanone]
< 5 µM | < 0.5 µM | < 0.5 µM | COc1cc(C#Cc2cnc3ccc(-c4ccc(C(=O)N5CCOCC5)cc4)nn23)ccn1 [Example 019, (4-(3-((2-methoxypyridin-4-yl)ethynyl)imidazo[1,2-b]pyridazin-6-yl)phenyl) (morpholino)methanone]
< 5 µM | < 0.5 µM | < 0.5 µM | O=C(c1ccc(-c2ccc3ncc(C#Cc4cn[nH]c4)n3n2)cc1)N1CCOCC1 [Example 028, (4-(3-((1H-pyrazol-4-yl)ethynyl)imidazo[1,2-b]pyridazin-6-yl)phenyl)(morpholino)methanone]
< 5 µM | < 0.5 µM | < 0.5 µM | Nc1cc(C#Cc2cnc3ccc(-c4ccc(C(=O)N5CCNCC5)cc4)nn23)ccn1 [Example 046, (4-(3-((2-aminopyridin-4-yl)ethynyl)imidazo[1,2-b]pyridazin-6-yl)phenyl)(piperazin-1-yl)methanone]
< 5 µM | < 0.5 µM | < 0.5 µM | O=C(c1ccc(-c2ccc3ncc(C#Cc4cc(NCc5ccccc5)nc5[nH]ccc45)n3n2)cc1)N1CCOCC1 [Example 073, (4-(3-((6-(benzylamino)-1H-pyrrolo[2,3-b]pyridin-4-yl)ethynyl)imidazo[1,2-b]pyridazin-6-yl)phenyl)(morpholino)methanone]
< 5 µM | < 0.5 µM | < 0.5 µM | CN1CCN(C(=O)c2ccc(-c3cn4c(C#Cc5ccccc5)cnc4cn3)cc2)CC1 [Example 089, (4-methylpiperazin-1-yl) (4-(3-(phenylethynyl)imidazo[1,2-a]pyrazin-6-yl)phenyl)methanone]
< 5 µM | < 0.5 µM | < 0.5 µM | O=C(Nc1cc(C#Cc2cnc3ccc(-c4ccc(C(=O)N5CCOCC5)cc4)nn23)ccn1)c1ccncc1 [Example 064, N-(4-((6-(4-(morpholine-4-carbonyl)phenyl)imidazo[1,2-b]pyridazin-3-yl)ethynyl)pyridin-2-yl)isonicotinamide]

Source: US10544149B2, “Bicyclic alkyne derivatives and uses thereof” (Agency for Science, Technology and Research, priority 2013, dated 2020)
